From ChEMBL document CHEMBL5543151, “Rational Design of a Novel Class of Human ClpP Agonists through a Ring-Opening Strategy with Enhanced Antileukemia Activity” (J Med Chem, 2024)

Experiments:
[1] = biological target: T1, ATP-dependent Clp protease proteolytic subunit, mitochondrial (Homo sapiens, UniProt Q16740); assay: Agonist activity at human Casein lysing protease P (HsClpP) assessed as increase in peptidase activity using fluorescent peptide AC-WLA-AMC as substrate measured after 2 hrs by […]
T1 sequence (Q16740 whole entry): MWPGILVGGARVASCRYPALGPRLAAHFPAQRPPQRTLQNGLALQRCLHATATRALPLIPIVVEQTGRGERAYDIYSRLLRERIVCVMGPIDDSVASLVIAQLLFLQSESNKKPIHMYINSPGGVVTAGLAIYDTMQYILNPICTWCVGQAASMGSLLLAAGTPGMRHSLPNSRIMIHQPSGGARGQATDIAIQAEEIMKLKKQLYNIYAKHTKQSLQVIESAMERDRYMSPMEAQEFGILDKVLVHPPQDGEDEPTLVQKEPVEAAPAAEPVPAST

MV4-11 [2] = assay: Anti-leukemia activity against human MV4-11 cells assessed as decrease in cell proliferation incubated for 72 hrs by CCK-8 assay; type: functional, cell-based; conditions: MV4-11, 72 h
MV4-11 [3] = assay: Potency index, ratio of ONC201 IC50 to test compound IC50 for anti-leukemia activity against human MV4-11 cells assessed as decrease in cell proliferation incubated for 72 hrs by CCK-8 assay; type: functional
[4] = Half life in Sprague-Dawley rat at 5 mg/kg, iv measured upto 12 hrs by LC-MS analysis; type: ADME, organism-based; conditions: in vivo
[5] = Cmax in Sprague-Dawley rat at 15 mg/kg, po measured upto 12 hrs by LC-MS analysis; type: ADME, organism-based; conditions: in vivo
[6] = MRT (0 to 12hrs) in Sprague-Dawley rat at 5 mg/kg, iv measured upto 12 hrs by LC-MS analysis; type: ADME, organism-based; conditions: in vivo
[7] = Bioavailability in Sprague-Dawley rat at 5 mg/kg, iv measured upto 12 hrs by LC-MS analysis; type: ADME, organism-based; conditions: in vivo
[8] = Cmax in Sprague-Dawley rat at 5 mg/kg, iv measured upto 12 hrs by LC-MS analysis; type: ADME, organism-based; conditions: in vivo
[9] = AUC(0 to 12hrs) in Sprague-Dawley rat at 5 mg/kg, iv measured upto 12 hrs by LC-MS analysis; type: ADME, organism-based; conditions: in vivo
[10] = MRT (0 to 12hrs) in Sprague-Dawley rat at 15 mg/kg, po measured upto 12 hrs by LC-MS analysis; type: ADME, organism-based; conditions: in vivo
[11] = AUC(0 to 12hrs) in Sprague-Dawley rat at 15 mg/kg, po measured upto 12 hrs by LC-MS analysis; type: ADME, organism-based; conditions: in vivo
[12] = Clearance in Sprague-Dawley rat at 5 mg/kg, iv measured upto 12 hrs by LC-MS analysis; type: ADME, organism-based; conditions: in vivo
[13] = Half life in Sprague-Dawley rat at 15 mg/kg, po measured upto 12 hrs by LC-MS analysis; type: ADME, organism-based; conditions: in vivo
[14] = Tmax in Sprague-Dawley rat at 15 mg/kg, po measured upto 12 hrs by LC-MS analysis; type: ADME, organism-based; conditions: in vivo
[15] = biological target: T1, ATP-dependent Clp protease proteolytic subunit, mitochondrial; conditions: filed as agonist, dose 10.0 µM, time 2.0 hrs

EC50 [1]	IC50 (MV4-11 [2])	SMILES	also measured
1340 nM	> 10000 nM	O=c1nc(NCc2ccccc2)[nH]c2c1CN(Cc1ccccc1)CC2	
870 nM	30 nM	N#Cc1cccc(CN2CCc3[nH]c(NCc4ccc(F)c(F)c4)nc(=O)c3C2)c1	Ratio IC50 (MV4-11 [3]): 20
1350 nM	930 nM	O=c1nc(NCc2ccccc2F)[nH]c2c1CN(Cc1ccccc1)CC2	
610 nM	450 nM	N#Cc1cccc(CN2CCc3[nH]c(NCc4ccccc4)nc(=O)c3C2)c1	
1950 nM	1690 nM	O=c1nc(NCc2ccc(Cl)cc2)[nH]c2c1CN(Cc1ccccc1)CC2	
> 10000 nM	> 10000 nM	Cc1ccccc1CN1CCc2[nH]c(NCc3ccccc3)nc(=O)c2C1	
> 10000 nM	1630 nM	Cc1cccc(CNc2nc(=O)c3c([nH]2)CCN(Cc2ccccc2)C3)c1	
1110 nM	1610 nM	Cc1ccc(CNc2nc(=O)c3c([nH]2)CCN(Cc2ccccc2)C3)cc1	
		Cc1ccccc1CN1C(=O)C2=C(CCN(Cc3ccccc3)C2)N2CCN=C12.Cl	half-life [4]: 1.1 h; Cmax [5]: 448 ng/mL; MRT last at 12 h [6]: 0.7 h; bioavailability [7]: 14.8%; Cmax [8]: 970 ng/mL; AUC(0-t) at 12 h [9]: 1270 ng·h/mL; MRT last at 12 h [10]: 1.3 h; AUC(0-t) at 12 h [11]: 565 ng·h/mL; clearance [12]: 96.7 mL/min/kg; half-life [13]: 1.4 h; Tmax [14]: 0.5 h
> 10000 nM	> 10000 nM	O=c1nc(NCc2ccccc2)[nH]c2c1CN(CCc1ccccc1)CC2	
> 10000 nM	> 10000 nM	O=c1nc(NCC2CC2)[nH]c2c1CN(Cc1ccccc1)CC2	
2250 nM	2400 nM	O=c1nc(NCc2ccc3ccccc3c2)[nH]c2c1CN(Cc1ccccc1)CC2	
520 nM	2900 nM	O=c1nc(NCc2ccc3c(c2)OCO3)[nH]c2c1CN(Cc1ccccc1)CC2	
2020 nM	830 nM	COc1ccc(CNc2nc(=O)c3c([nH]2)CCN(Cc2ccccc2)C3)cc1	
> 10000 nM	> 10000 nM	N#Cc1cccc(CN2CCc3[nH]c(NCc4cccc(F)c4)nc(=O)c3C2)c1	
> 10000 nM	> 10000 nM	COc1cccc(CNc2nc(=O)c3c([nH]2)CCN(Cc2ccccc2)C3)c1	
> 10000 nM	> 10000 nM	Cc1ccccc1CNc1nc(=O)c2c([nH]1)CCN(Cc1cccc(C#N)c1)C2	
> 10000 nM	> 10000 nM	O=c1nc(NCc2ccccc2Br)[nH]c2c1CN(Cc1ccccc1)CC2	
2020 nM	830 nM	O=c1nc(NCc2ccccc2)[nH]c2c1CN(Cc1cccc(F)c1)CC2	
1350 nM	1030 nM	O=c1nc(NCc2ccccc2)[nH]c2c1CN(Cc1ccccc1Cl)CC2	

EC50 [1]	IC50 (MV4-11 [2])	SMILES	also measured
> 10000 nM	> 10000 nM	O=c1[nH]c(NCCc2ccccc2)nc2c1CN(Cc1ccccc1)CC2	
> 10000 nM	> 10000 nM	O=c1nc(NCc2cccnc2)[nH]c2c1CN(Cc1ccccc1)CC2	
510 nM	30 nM	O=c1nc(NCc2ccc(F)c(F)c2)[nH]c2c1CN(Cc1cc(F)cc(F)c1)CC2	Ratio IC50 (MV4-11 [3]): 20
> 10000 nM	> 10000 nM	O=c1nc(NCc2ccc(C(F)(F)F)cc2)[nH]c2c1CN(Cc1ccc(Cl)c(Cl)c1)CC2	
2100 nM	1200 nM	O=c1nc(NCc2ccccc2)[nH]c2c1CN(Cc1ccc(F)c(F)c1)CC2	
> 10000 nM	1680 nM	COc1cccc(CN2CCc3[nH]c(NCc4ccccc4)nc(=O)c3C2)c1	
950 nM	900 nM	O=c1nc(NCc2ccccc2)[nH]c2c1CN(Cc1cc(F)cc(F)c1)CC2	
> 10000 nM	> 10000 nM	COc1ccccc1CNc1nc(=O)c2c([nH]1)CCN(Cc1ccccc1)C2	
> 10000 nM	> 10000 nM	O=c1nc(NCC2CCCCC2)[nH]c2c1CN(Cc1ccccc1)CC2	
> 10000 nM	> 10000 nM	O=c1nc(NCc2ccccc2Cl)[nH]c2c1CN(Cc1ccccc1)CC2	
> 10000 nM	> 10000 nM	O=c1nc(NCc2cccc(F)c2)[nH]c2c1CN(Cc1ccccc1)CC2	
> 10000 nM	> 10000 nM	N#Cc1ccccc1CN1CCc2[nH]c(NCc3ccccc3)nc(=O)c2C1	
1210 nM	970 nM	O=c1nc(NCc2ccccc2)[nH]c2c1CN(Cc1ccc(Cl)cc1)CC2	
> 10000 nM	> 10000 nM	O=c1nc(NCc2ccccc2)[nH]c2c1CN(CC1CC1)CC2	
820 nM	60 nM	N#Cc1cccc(CN2CCc3[nH]c(NCc4ccc(Cl)c(Cl)c4)nc(=O)c3C2)c1	
1000 nM	360 nM	O=c1nc(NCc2ccc(F)cc2)[nH]c2c1CN(Cc1ccccc1)CC2	
> 10000 nM	> 10000 nM	O=c1nc(NCc2ccccc2)[nH]c2c1CN(Cc1ccccc1F)CC2	
> 10000 nM	> 10000 nM	O=c1nc(NCc2ccc3c(c2)OCO3)[nH]c2c1CN(Cc1cc(F)cc(F)c1)CC2	
> 10000 nM	> 10000 nM	O=c1nc(NCc2ccc(C(F)(F)F)cc2)[nH]c2c1CN(Cc1cc(F)cc(F)c1)CC2	
1220 nM	1510 nM	Cc1ccccc1CNc1nc(=O)c2c([nH]1)CCN(Cc1ccccc1)C2	

EC50 [1]	IC50 (MV4-11 [2])	SMILES	also measured
> 10000 nM	> 10000 nM	CCNc1nc(=O)c2c([nH]1)CCN(Cc1ccccc1)C2	
> 10000 nM	> 10000 nM	O=c1nc(NCc2ccc3c(c2)OCO3)[nH]c2c1CN(Cc1ccc(Cl)c(Cl)c1)CC2	
610 nM	450 nM	O=c1nc(NCc2ccc(Cl)c(Cl)c2)[nH]c2c1CN(Cc1ccccc1)CC2	
1000 nM	360 nM	O=c1nc(NCc2ccccc2)[nH]c2c1CN(Cc1ccc(Cl)c(Cl)c1)CC2	
1950 nM	930 nM	O=c1nc(NCc2ccc(Br)cc2)[nH]c2c1CN(Cc1ccccc1)CC2	
> 10000 nM	> 10000 nM	Cc1ccc(CN2CCc3[nH]c(NCc4ccccc4)nc(=O)c3C2)cc1	
		N#Cc1cccc(CN2CCc3[nH]c(NCc4ccc(F)cc4)nc(=O)c3C2)c1	ΔTm [15]: 18.3 °C
1920 nM	350 nM	Cc1ccccc1CN1CCn2c1nc(=O)c1c2CCN(Cc2ccccc2)C1	
> 10000 nM	> 10000 nM	O=c1nc(NCc2ccccc2)[nH]c2c1CN(Cc1ccc(F)cc1)CC2	
> 10000 nM	> 10000 nM	O=c1nc(NCc2cnccn2)[nH]c2c1CN(Cc1ccccc1)CC2	
1410 nM	480 nM	O=c1nc(NCc2ccc(F)c(F)c2)[nH]c2c1CN(Cc1ccccc1)CC2	
> 10000 nM	> 10000 nM	CS(=O)(=O)c1ccc(CN2CCc3[nH]c(NCc4ccccc4)nc(=O)c3C2)cc1	
> 10000 nM	1880 nM	O=c1nc(NCc2cccc(Cl)c2)[nH]c2c1CN(Cc1ccccc1)CC2	
> 10000 nM	> 10000 nM	N#Cc1cccc(CN2CCc3[nH]c(NCc4ccc(C(F)(F)F)cc4)nc(=O)c3C2)c1	
> 10000 nM	> 10000 nM	CCN1CCc2[nH]c(NCc3ccccc3)nc(=O)c2C1	
> 10000 nM	> 10000 nM	Cc1ccccc1CNc1nc(=O)c2c([nH]1)CCN(Cc1cc(F)cc(F)c1)C2	
2250 nM	2400 nM	Cc1cccc(CN2CCc3[nH]c(NCc4ccccc4)nc(=O)c3C2)c1	
1090 nM	930 nM	O=c1nc(NCc2ccccc2)[nH]c2c1CN(Cc1cccc(Cl)c1)CC2	
2100 nM	1200 nM	O=c1nc(NCc2ccc(C(F)(F)F)cc2)[nH]c2c1CN(Cc1ccccc1)CC2	
> 10000 nM	> 10000 nM	O=c1nc(NCc2cccc(Br)c2)[nH]c2c1CN(Cc1ccccc1)CC2	
